Test results taken from patent publication US9266883B2, “Ring-fused bicyclic pyridyl derivatives as FGFR4 inhibitors” (Novartis AG, priority 2013, dated 2016).
pIC50: −log10 of the molar value. Structures can show the parent of a compound that is named as a salt. Where two headings read alike, the source gives them in different places.

Experiments:
[1] = molecular target: Tel-FGFR4 (Homo sapiens (Human), UniProt P22455); assay: In vitro cellular kinase assay for FGFR4 (BaF3-Tel-FGFR4 cells, MSD capture ELISA of tyrosine phosphorylation); assay type: cell-based
[2] = molecular target: FGFR4 (GST-FGFR4(388-802)) (Homo sapiens (Human), UniProt P22455); assay: In-vitro biochemical kinase assay for FGFR4 (Caliper microfluidic mobility shift)
[3] = Cellular BaF3 FGFR4 assay, read-out: Cellular IC50
[4] = biochemical FGFR4 assay, read-out: Biochemical IC50
[5] = BaF3-Tel-FGFR4 cells, 1 hour incubation, read-out: Cellular BaF3 FGFR4 IC50
[6] = read-out: Biochemical FGFR4 IC50

Sequence of Tel-FGFR4 (P22455 other isoform, or with tags, fused parts or gaps): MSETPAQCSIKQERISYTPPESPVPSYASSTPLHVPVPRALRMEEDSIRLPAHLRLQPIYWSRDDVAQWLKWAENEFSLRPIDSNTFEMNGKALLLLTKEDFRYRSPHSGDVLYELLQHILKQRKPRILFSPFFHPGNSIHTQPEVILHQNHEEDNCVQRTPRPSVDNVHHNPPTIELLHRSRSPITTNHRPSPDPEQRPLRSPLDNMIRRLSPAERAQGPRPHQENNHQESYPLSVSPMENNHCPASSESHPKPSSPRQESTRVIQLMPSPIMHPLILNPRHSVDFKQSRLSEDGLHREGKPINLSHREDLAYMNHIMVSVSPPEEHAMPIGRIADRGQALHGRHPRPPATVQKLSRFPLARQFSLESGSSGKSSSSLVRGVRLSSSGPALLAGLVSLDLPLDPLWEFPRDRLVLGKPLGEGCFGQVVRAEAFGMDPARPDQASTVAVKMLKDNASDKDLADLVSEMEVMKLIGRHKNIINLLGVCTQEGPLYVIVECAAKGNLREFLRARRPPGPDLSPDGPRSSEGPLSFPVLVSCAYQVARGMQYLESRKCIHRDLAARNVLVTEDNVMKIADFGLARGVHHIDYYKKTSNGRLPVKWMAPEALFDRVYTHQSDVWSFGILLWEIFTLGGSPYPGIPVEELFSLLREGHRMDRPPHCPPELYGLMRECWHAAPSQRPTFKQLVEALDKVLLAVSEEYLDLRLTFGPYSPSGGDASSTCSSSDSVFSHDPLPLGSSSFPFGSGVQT
Sequence of FGFR4 (GST-FGFR4(388-802)) (P22455 388-802): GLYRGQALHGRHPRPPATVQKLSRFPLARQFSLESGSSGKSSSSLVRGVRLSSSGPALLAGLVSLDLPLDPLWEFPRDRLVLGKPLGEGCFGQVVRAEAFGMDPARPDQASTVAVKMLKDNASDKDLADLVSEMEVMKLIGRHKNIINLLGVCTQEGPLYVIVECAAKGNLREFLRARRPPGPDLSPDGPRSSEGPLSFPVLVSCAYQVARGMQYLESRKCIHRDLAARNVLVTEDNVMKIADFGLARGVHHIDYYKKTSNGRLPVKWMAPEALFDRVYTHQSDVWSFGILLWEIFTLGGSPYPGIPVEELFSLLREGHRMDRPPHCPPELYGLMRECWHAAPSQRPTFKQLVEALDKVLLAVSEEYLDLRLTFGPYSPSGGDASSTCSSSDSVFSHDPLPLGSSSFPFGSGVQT

Row | SMILES | pIC50 [1, 3] | pIC50 [2, 4] | pIC50 [1, 5] | pIC50 [2, 6] | pIC50 ([1]; measured and considered as outlier values, not included in the table or list, read-out: IC50 in the cellular BaF3 FGFR4 assay, outlier values)
1 | COCCNc1cc(NC(=O)N2CCCc3cc(CN4C[C@H](N(C)C)CC4=O)c(C=O)nc32)ncc1C#N [(R)-N-(5-cyano-4-((2-methoxyethyl)amino)pyridin-2-yl)-6-((4-(dimethylamino)-2-oxopyrrolidin-1-yl)methyl)-7-formyl-3,4-dihydro-1,8-naphthyridine-1(2H)-carboxamide] | 8.21 | 9.70 |  |  | 
2 | N#Cc1cnc(NC(=O)N2CCCc3cc(CO)c(C=O)nc32)cc1OCC(F)(F)F [Example 89, N-(5-cyano-4-(2,2,2-trifluoroethoxyl)pyridin-2-yl)-7-formyl-6-(hydroxymethyl)-3,4-dihydro-1,8-naphthyridine-1(2H)-carboxamide] |  |  | 7.84 | 8.05 | 
3 | CC(C)Oc1cc(NC(=O)N2CCCc3cc(CO)c(C=O)nc32)ncc1C#N [N-(5-cyano-4-isopropoxypyridin-2-yl)-7-formyl-6-(hydroxymethyl)-3,4-dihydro-1,8-naphthyridine-1(2H)-carboxamide] | 8.04 | 8.55 |  |  | 
4 | CCN1CCN(Cc2cc3c(nc2C=O)N(C(=O)Nc2cc(NCCOC)c(C#N)cn2)CCC3)C(=O)C1 [N-(5-cyano-4-((2-methoxyethyl)amino)pyridin-2-yl)-6-((4-ethyl-2-oxopiperazin-1-yl)methyl)-7-formyl-3,4-dihydro-1,8-naphthyridine-1(2H)-carboxamide] | 8.01 | 8.80 |  |  | 
5 | CC(C)Oc1cc(NC(=O)N2CCCc3cc(CN4CCOC4=O)c(C=O)nc32)ncc1C#N [N-(5-cyano-4-isopropoxypyridin-2-yl)-7-formyl-6-((2-oxooxazolidin-3-yl)methyl)-3,4-dihydro-1,8-naphthyridine-1(2H)-carboxamide] | 8.25 | 8.89 |  |  | 
6 | COC[C@H](C)Oc1nc(NC(=O)N2CCCc3cc(CO)c(C=O)nc32)ncc1Cl [Example 58, (S)-N-(5-chloro-4-((1-methoxypropan-2-yl)oxy)pyrimidin-2-yl)-7-formyl-6-(hydroxymethyl)-3,4-dihydro-1,8-naphthyridine-1(2H)-carboxamide] |  |  | 6.05 | 6.80 | 
7 | COC[C@H](C)Oc1cc(NC(=O)N2CCCc3cc(CN4CCCC4=O)c(C=O)nc32)ncc1C#N [(S)-N-(5-cyano-4-((1-methoxypropan-2-yl)oxy)pyridin-2-yl)-7-formyl-6-((2-oxopyrrolidin-1-yl)methyl)-3,4-dihydro-1,8-naphthyridine-1(2H)-carboxamide] | 8.12 | 8.34 |  |  | 
8 | CN1CCN(Cc2cc3c(nc2C=O)N(C(=O)Nc2cc(NCCOS(=O)(=O)O)c(C#N)cn2)CCC3)C(=O)C1 [Example 236, 2-((5-cyano-2-(7-formyl-6-((4-methyl-2-oxopiperazin-1-yl)methyl)-1,2,3,4-tetrahydro-1,8-naphthyridine-1-carboxamido)pyridin-4-yl)amino)ethyl hydrogen sulfate] |  |  | 5.95 | 8.09 | < 5.52
9 | CC(C)Oc1cc(NC(=O)N2CCCc3cc(CN(C)C(=O)C(C)C)c(C=O)nc32)ncc1C#N [N-(5-cyano-4-isopropoxypyridin-2-yl)-7-formyl-6-((N-methylisobutyramido)methyl)-3,4-dihydro-1,8-naphthyridine-1(2H)-carboxamide] | 7.90 | 8.92 |  |  | 
10 | O=Cc1nc2c(cc1CO)CCCN2C(=O)Nc1ncc(Cl)c(O[C@H]2CCOC2)n1 [Example 69, (S)-N-(5-chloro-4-((tetrahydrofuran-3-yl)oxy)pyrimidin-2-yl)-7-formyl-6-(hydroxymethyl)-3,4-dihydro-1,8-naphthyridine-1(2H)-carboxamide] |  |  | 7.02 | 7.27 | 
11 | COCCNc1cc(NC(=O)N2CCCc3cc(CN4C[C@@H](N(C)C)CC4=O)c(C=O)nc32)ncc1C#N [(S)-N-(5-cyano-4-((2-methoxyethyl)amino)pyridin-2-yl)-6-((4-(dimethylamino)-2-oxopyrrolidin-1-yl)methyl)-7-formyl-3,4-dihydro-1,8-naphthyridine-1(2H)-carboxamide] | 8.24 | 9.22 |  |  | 
12 | COC[C@H](C)Nc1cc(NC(=O)N2CCCc3cc(CN4CCOCC4=O)c(C=O)nc32)ncc1C#N [(S)-N-(5-cyano-4-((1-methoxypropan-2-yl)amino)pyridin-2-yl)-7-formyl-6-((3-oxomorpholino)methyl)-3,4-dihydro-1,8-naphthyridine-1(2H)-carboxamide] | 8.24 | 8.60 |  |  | 
13 | COCCNc1cc(NC(=O)N2CCCc3cc(C4CCN(CC(F)F)CC4)c(C=O)nc32)ncc1C#N [Example 267, N-(5-cyano-4-((2-methoxyethyl)amino)pyridin-2-yl)-6-(1-(2,2-difluoroethyl)piperidin-4-yl)-7-formyl-3,4-dihydro-1,8-naphthyridine-1(2H)-carboxamide] |  |  | 7.78 | 8.92 | 
14 | COCCOc1cc(NC(=O)N2CCCc3cc(CN4CCNCC4=O)c(C=O)nc32)ncc1C#N [N-(5-cyano-4-(2-methoxyethoxyl)pyridin-2-yl)-7-formyl-6-((2-oxopiperazin-1-yl)methyl)-3,4-dihydro-1,8-naphthyridine-1(2H)-carboxamide trifluoroacetate] | 7.25 | 8.34 |  |  | 
15 | N#Cc1cnc(NC(=O)N2CCCc3ccc(C=O)nc32)cc1Cl [Example 24, N-(4-chloro-5-cyanopyridin-2-yl)-7-formyl-3,4-dihydro-1,8-naphthyridine-1(2H)-carboxamide] |  |  | < 5.52 | 7.62 | 
16 | N#Cc1cnc(NC(=O)N2CCCc3ccc(C=O)nc32)cc1C#N [Example 17, N-(4,5-dicyanopyridin-2-yl)-7-formyl-3,4-dihydro-1,8-naphthyridine-1(2H)-carboxamide] |  |  | 6.04 | 7.40 | 
17 | COCCNc1cc(NC(=O)N2CCC(O)c3cc(CN4CCN(C)CC4=O)c(C=O)nc32)ncc1C#N (stereo not shown) [N-(5-cyano-4-((2-methoxyethyl)amino)pyridin-2-yl)-7-formyl-4-hydroxy-6-((4-methyl-2-oxopiperazin-1-yl)methyl)-3,4-dihydro-1,8-naphthyridine-1(2H)-carboxamide] | 7.29 | 8.74 |  |  | 
18 | COC(C)CNc1cc(NC(=O)N2CCCc3cc(C(F)F)c(C=O)nc32)ncc1C#N (stereo not shown) [N-(5-cyano-4-((2-methoxypropyl)amino)pyridin-2-yl)-6-(difluoromethyl)-7-formyl-3,4-dihydro-1,8-naphthyridine-1(2H)-carboxamide] | 7.73 | 8.96 |  |  | 
19 | N#Cc1cnc(NC(=O)N2CCCc3cc(CN4CC[C@H](O)C4=O)c(C=O)nc32)cc1OCC(F)F [(S)N-(5-cyano-4-(2,2-difluoroethoxyl)pyridin-2-yl)-7-formyl-6-((3-hydroxy-2-oxopyrrolidin-1-yl)methyl)-3,4-dihydro-1,8-naphthyridine-1(2H)-carboxamide] | 7.87 | 8.32 |  |  | 
20 | COCCNc1cc(NC(=O)N2CCCc3cc(CN4CC[N+](C)([O-])CC4=O)c(C=O)nc32)ncc1C#N (stereo not shown) [Example 222, 4-((8-((5-cyano-4-((2-methoxyethyl)amino)pyridin-2-yl)carbamoyl)-2-formyl-5,6,7,8-tetrahydro-1,8-naphthyridin-3-yl)methyl)-1-methyl-3-oxopiperazine 1-oxide] |  |  | 7.38 | > 8.32 | 
21 | CC(C)Nc1cc(NC(=O)N2CCCc3cc(CN(C)C(=O)CN(C)C)c(C=O)nc32)ncc1C#N [N-(5-cyano-4-(isopropylamino)pyridin-2-yl)-6-((2-(dimethylamino)-N-methylacetamido)methyl)-7-formyl-3,4-dihydro-1,8-naphthyridine-1(2H)-carboxamide] | 7.94 | 9.22 |  |  | 
22 | O=Cc1nc2c(cc1CO)CCCN2C(=O)Nc1cc(O[C@H]2CCOC2)c(Cl)cn1 [Example 72, (S)-N-(5-chloro-4-((tetrahydrofuran-3-yl)oxy)pyridin-2-yl)-7-formyl-6-(hydroxymethyl)-3,4-dihydro-1,8-naphthyridine-1(2H)-carboxamide] |  |  | 7.24 | 7.68 | 
23 | COCCNc1cc(NC(=O)N2CCCc3cc(CN(C)C(=O)CN(C)C)c(C=O)nc32)ncc1C#N [N-(5-cyano-4-((2-methoxyethyl)amino)pyridin-2-yl)-6-((2-(dimethylamino)-N-methylacetamido)methyl)-7-formyl-3,4-dihydro-1,8-naphthyridine-1(2H)-carboxamide] | 8.21 | 9.70 |  |  | 
24 | CC(C)Oc1cc(NC(=O)N2c3nc(C=O)c(Br)cc3CC[C@H]2C)ncc1C#N [(R)-6-bromo-N-(5-cyano-4-isopropoxypyridin-2-yl)-7-formyl-2-methyl-3,4-dihydro-1,8-naphthyridine-1(2H)-carboxamide] | 6.77 | 7.68 |  |  | 
25 | COC[C@@H](C)Oc1nc(NC(=O)N2CCCc3cc(CO)c(C=O)nc32)ncc1Cl [Example 59, (R)-N-(5-chloro-4-((1-methoxypropan-2-yl)oxy)pyrimidin-2-yl)-7-formyl-6-(hydroxymethyl)-3,4-dihydro-1,8-naphthyridine-1(2H)-carboxamide] |  |  | 6.98 | 7.32 | 
26 | CC(C)Oc1cc(NC(=O)N2CCCc3cc(CN4C[C@H](N(C)C)CC4=O)c(C=O)nc32)ncc1C#N [(R)-N-(5-cyano-4-isopropoxypyridin-2-yl)-6-((4-(dimethylamino)-2-oxopyrrolidin-1-yl)methyl)-7-formyl-3,4-dihydro-1,8-naphthyridine-1(2H)-carboxamide] | 8.17 | 9.52 |  |  | 
27 | CC(C)(O)CNc1cc(NC(=O)N2CCCc3cc(C(F)F)c(C=O)nc32)ncc1C#N [N-(5-cyano-4-((2-hydroxy-2-methylpropyl)amino)pyridin-2-yl)-6-(difluoromethyl)-7-formyl-3,4-dihydro-1,8-naphthyridine-1(2H)-carboxamide] | 7.99 | 8.80 |  |  | 
